# Paper PMC5487684, “Safety, Pharmacokinetics, and Antiviral Activity of a Novel HIV Antiviral, ABX464, in Treatment-Naive HIV-Infected Subjects in a Phase 2 Randomized, Controlled Study” (Antimicrobial Agents and Chemotherapy, 2017)
# How the values were obtained:
# [1] = system: HIV-1; details: cited from earlier work
# [2] = system: HIV replication in macrophages; set-up: method as in PMID 25889234; details: in vitro; cited from earlier work
# [3] = Plasma pharmacokinetics of ABX464 and ABX464-NGlc in HIV-infected subjects; format: in vivo, human
# Method: Plasma samples were analyzed for ABX464 and ABX464-NGlc using validated bioanalytical methods by Atlanbio (Saint Nazaire, France) according to good laboratory practices. Pharmacokinetic parameters were calculated by noncompartmental analysis (NCA), using Phoenix WinNonlin software (Pharsight Corporation) running on a personal computer. On day 1, the following PK parameters were generated: Cmax, the time to Cmax (Tmax), lag time (tlag), elimination rate constant (kel), area under the concentration-time curve (AUC) from time zero to time t (AUC0–t), AUC from time zero to infinity (AUC0–∞), apparent clearance (CL/F), and apparent volume of distribution (V/F). On the other days of PK assessment, only Cmax, Tmax, tlag, kel, and AUC0–t were generated. The secondary analysis concerned pharmacodynamic (PD) activity, as expressed by CD4 and CD8 levels and viral load across time. The HIV viral load was analyzed in the prequalified individual local study center laboratories. CD4 and CD8 cell counts were also determined in the local study center laboratories. With respect to the viral load, changes in the log-transformed viral load values between 24 h postdose and predose were calculated on each day, and a comparison between each dose level and pooled placebo data was made. Moreover, the rate of success (defined as a decrease in the viral load value of at least 0.5 log) was evaluated for each treatment (including placebo) and compared between treatments.
# [4] = system: HIV replication in PBMCs; set-up: method as in PMID 25889234; details: in vitro; cited from earlier work
smiles,measurement,setting,value
Cn1cc(-c2cccc3cc(C(=O)N=C(N)N)ccc23)cn1,Decrease in mean total HIV-1 DNA copy number in monocytes,[1]; 10 days of treatment,2.7 fold
same,Reduction in mean total HIV-1 DNA copy number in monocytes,[1]; 10 days of treatment,63%
same,Effect on HIV viral load in plasma or CD4 T cell count,[1],no significant effect
same,Treated individuals with significant reductions in total HIV-1 DNA levels within monocytes,[1],three of the six
"O=C(O)[C@H]1O[C@@H](N(c2ccc(OC(F)(F)F)cc2)c2ccc3cccc(Cl)c3n2)[C@H](O)[C@@H](O)[C@@H]1O [ABX464-NGlc, ABX464-N-glucuronide]",50% inhibitory concentration in macrophage culture relative to parent drug,[2],same 50% inhibitory concentration as the parent drug
same,Inhibition of HIV replication in macrophage culture,[2],able to inhibit HIV replication
same,half-life (t1/2),"[3]; HIV-infected subjects, oral",about 100 h
same,Bioavailability of ABX464-NGlc in human subjects relative to mice,"[3]; human, in vivo",approximately 15 fold
same,Cmax of the metabolite relative to that of the parent compound,[3]; plasma,approximately 160 fold
same,Antiviral effect on HIV replication in PBMCs,[4],no antiviral effect
